Laboratory results published in patent US4172143A, “2-Methoxy-benzamide derivatives” (priority 1974, dated 1979).
Structures can show the parent of a compound that is named as a salt. Where two headings read alike, the source gives them in different places.

Legend:
in vivo = conditions: for LD50 at 48 h: LD 50 over 48 hours
Protocol: The compounds were administered in the form of their hydrochlorides or of their methanesulphonates.
The acute toxicity was evaluated in Swiss CDl mice of both sexes, of average weight 20 g. The 50% lethal dose (LD 50) of each product was determined by a graphical method.

[1] = tested on: stereotypies induced by apomorphine; assay: Antagonism towards stereotypies induced by apomorphine in rats (method of Janssen); assay type: in vivo, male Sprague-Dawley (Charles River) rats; conditions: for ED50: Rattus norvegicus, read-out: Antagonism to stereotypies induced by apomorphine in rats, AD 50; for Antagonism to stereotypies induced by apomorphine in rats, AD 50: oral; for antagonism to stereotypies induced in rats by apomorphine: oral administration
Source text: (1) Antagonism towards stereotypies induced by apomorphine in male Sprague-Dawley (Charles River) rats of average weight 130 g, in accordance with the method of Janssen and colleagues (Arzneim. Forsch. 1960, 10, 1003).
(§1) In these two tests, the results are expressed by the 50% active doses (AD 50).

[2] = tested on: emetic effect induced by apomorphine; assay: Antagonism towards emetic effect induced by apomorphine in dogs; assay type: in vivo; conditions: Canis lupus familiaris, emesis induced by apomorphine, read-out: Antiemetic activity in dogs, AD 50
Source text: Some compounds have also antiemetic activity which was studied with the following test:
(4) Antagonism towards emetic effect induced by apomorphine in dogs (Shallek et al, Arch. Int. Pharmacodyn. 174 (1968) N°. 2, 350-372. Boissier et al, Med. Exp. 6 (1962), 320-326). The results are expressed in active doses 50% (AD 50) and set in Table IX.

[3] = Catalepsy-inducing effect in rats (method of Tedeschi); assay type: in vivo, male Sprague-Dawley (Charles River) rats; conditions: for TD50: rat, in vivo, ip
Source text: (2) Catalepsy-inducing effect in rats of the same species and of the same weight, in accordance with the method of Tedeschi and colleagues (Arch. Intern. Pharmacodyn. 1959, 122, 129).
as §1

[4] = Protection against a stress due to an environment and new feedstuffs (method of Stephens); assay type: in vivo, mice; conditions: dose producing 40% increase in feedstuff taken, * no activity was observed up to this dose; for ED40: Mus musculus, po, read-out: Protection against stress in mice, AD 40
Protocol: (3) Protection against a stress due to an environment and due to new feedstuffs, in male […] (CDl strain, weight about 20 g) in accordance with the method of Stephens (Brit. J. Pharmacol. 1973, 49, 146 P.). The doses (AD 40) which produce a 40% increase in the feedstuff taken were determined.

[5] = Neuro-pharmacological tests (overall conclusion); assay type: in vivo
Source text: The neuro-pharmacological activity was studied with the aid of the following three tests: […]

[6] = mouse, in vivo, ip, intraperitoneal, mice
[7] = ip, intraperitoneal, results for hydrochlorides given in weight of base
[8] = po, hydrochlorides in weight of base, * = no activity was observed up to this dose
[9] = hydrochlorides in weight of base, * = no activity was observed up to this dose

COc1ccc(S(N)(=O)=O)cc1C(=O)NCC1CCCN1CC1CC1 (racemic) [SL-C.036 (racemic) (cl), N-[(1-cyclopropylmethyl-pyrrolidinyl-2)-methyl]-2-methoxy-5-sulphamoyl-benzamide] showed an LD50 at 48 h (in vivo; [6]) of 400 mg/kg, an ED50 [1, 7] of 15 mg/kg and an ED50 [2] of 0.037 mg/kg.
With COc1ccc(S(N)(=O)=O)cc1C(=O)NCC1CCCN1Cc1ccc(F)cc1 (racemic) [SL-C.205 (racemic) (cl), N-[(1-p-fluorobenzyl-pyrrolidinyl-2)-methyl]-2-methoxy-5-sulphamoyl-benzamide] the LD50 at 48 h (in vivo; [6]) was 750 mg/kg, the LD50 at 168 h (in vivo; mouse, in vivo, po, LD 50, oral, mice, 7 days) was 3000 mg/kg and the TD50 [3] was > 480 mg/kg. For the same molecule, the ED50 [1, 7] was 30 mg/kg and the ED50 [1, 8] was 85 mg/kg.
For COc1ccc(S(N)(=O)=O)cc1C(=O)NCC1CCCN1Cc1ccc(F)cc1 (racemic) [SL-C.205 (racemic) (ms), N-[(1-p-fluorobenzyl-pyrrolidinyl-2)-methyl]-2-methoxy-5-sulphamoyl-benzamide], the LD50 at 48 h (in vivo; mouse, in vivo, iv, mice) was 190 mg/kg, the ED40 [4] was 60 mg/kg and the “Antagonism to stereotypies induced by apomorphine in rats, AD 50” value (“Antagonism to stereotypies induced … AD 50” for short) ([1]; hydrochlorides in weight of base, * = no activity was observed up to this dose, racemic (ms)) was 75 mg/kg.
For COc1ccc(S(N)(=O)=O)cc1C(=O)NCC1CCCN1Cc1ccc(F)cc1 (single isomer, unassigned) [SL-C.205 1 (ms), N-[(1-p-fluorobenzyl-pyrrolidinyl-2)-methyl]-2-methoxy-5-sulphamoyl-benzamide], the LD50 at 48 h (in vivo; mouse, in vivo, iv, mice) was 160 mg/kg, the “activity in neuro-pharmacological tests” value ([5]; in vivo) was “practically inactive” and the ED40 [4] was > 30 mg/kg. For the same molecule, the “Antagonism to stereotypies induced … AD 50” value [1, 9] was > 150 mg/kg.
For COc1ccc(S(N)(=O)=O)cc1C(=O)NCC1CCCN1Cc1ccc(F)cc1 (single isomer, unassigned) [SL-C.205 d (ms), N-[(1-p-fluorobenzyl-pyrrolidinyl-2)-methyl]-2-methoxy-5-sulphamoyl-benzamide], the “LD 50 over 48 hours” value (in vivo; mouse, in vivo, iv) was 160 mg/kg, the “activity relative to the racemic compound” value ([5]; depending on the chosen method of evaluation) was 1.5 times or twice and the “Protection against stress in mice, AD 40” value ([4]; oral) was 30 mg/kg. The “Antagonism to stereotypies induced … AD 50” value [1, 9] was 50 mg/kg.
COc1ccc(S(N)(=O)=O)cc1C(=O)NCC1CCCN1C(C)c1ccccc1 (single isomer, unassigned) [SL-D.222 (cl), 1(-)-N-[(1-α-methylbenzyl-pyrrolidinyl-2-)-methyl]-2-methoxy-5-sulphamoyl-benzamide] showed an LD50 at 48 h (in vivo; [6]) of 625 mg/kg.
In the case of COc1ccc(S(N)(=O)=O)cc1C(=O)NCC1CCCN1C(C)c1ccccc1 (single isomer, unassigned) [SL-D.223 (cl)], the “LD 50 over 48 hours” value (in vivo; mouse, in vivo, ip, 2880 min) is reported as 650 mg/kg.
Work on COc1ccc(S(N)(=O)=O)cc1C(=O)NC[C@@H]1CCCN1CC1CCCCC1 [77 205 (S) (+) (ms)] yielded an ED50 [2] of 0.014 mg/kg.
Molecule COc1ccc(S(N)(=O)=O)cc1C(=O)NC[C@@H]1CCCN1CC1CC1 [77.075 (S) (+) (ms), N-[(1-cyclopropylmethyl-pyrrolidinyl-2)-methyl]-2-methoxy-5-sulphamoyl-benzamide] has an LD50 at 48 h (in vivo; [6]) of 350 mg/kg and an ED50 [1, 7] of 4 mg/kg.
Work on COc1ccc(S(=O)(=O)N(C)C)cc1C(=O)NCC1CCCN1CC1CC1 (stereo not shown) [77.149] yielded an LD50 at 48 h (in vivo; [6]) of 240 mg/kg, an ED50 [1, 7] of 3 mg/kg and an ED50 [2] of 0.04 mg/kg.
For COc1ccc(S(C)(=O)=O)cc1C(=O)NCC1CCCN1CC1CC1 (stereo not shown) [77.173], the LD50 at 48 h (in vivo; [6]) was 235 mg/kg and the ED50 [1, 7] was 1.5 mg/kg.
COc1ccc(S(N)(=O)=O)cc1C(=O)NCC1CCCN1CC1CCCCC1 (stereo not shown) [77.205] showed an LD50 at 48 h (in vivo; [6]) of 360 mg/kg and an ED50 [1, 7] of 8 mg/kg.
With CCS(=O)(=O)c1ccc(OC)c(C(=O)NCC2CCCN2CC2CC2)c1 (stereo not shown) [77.206] the LD50 at 48 h (in vivo; [6]) was 310 mg/kg and the ED50 [1, 7] was 3 mg/kg.
With COc1ccc(S(N)(=O)=O)cc1C(=O)NCC1CCCN1Cc1cccc(Cl)c1 (stereo not shown) [SL-C.193 (cl)] the TD50 [3] was > 300 mg/kg.
For COc1ccc(S(N)(=O)=O)cc1C(=O)NCC1CCCN1Cc1ccc(F)cc1 (stereo not shown) [SL-C.205, N-[(1-p-fluorobenzyl-pyrrolidinyl-2)-methyl]-2-methoxy-5-sulphamoyl-benzamide], the “toxicity compared with Sulpiride” value (in vivo; than Sulpiride) was “much less toxic”, the “activity compared with Sulpiride” value ([5]; than Sulpiride) was “markedly more active” and the induction of catalepsy ([3]; up to high doses) was “does not induce catalepsy up to high doses”. For the same molecule, the “antagonism to stereotypies induced in rats by apomorphine” value [1] was “powerful antagonistic agent”.
For C#CCN1CCCC1CNC(=O)c1cc(S(N)(=O)=O)ccc1OC (stereo not shown) [SL-C.299 (cl)], the LD50 at 48 h (in vivo; [6]) was 170 mg/kg, the TD50 [3] was > 150 mg/kg and the ED50 [1, 7] was 80 mg/kg.
In the case of COc1ccc(S(N)(=O)=O)cc1C(=O)NCC1CCCN1C(c1ccccc1)c1ccccc1 (stereo not shown) [SL-D.090 (cl)], the LD50 at 48 h (in vivo; [6]) is reported as > 1500 mg/kg.
For COc1ccc(S(C)(=O)=O)cc1C(=O)NCC1CCCN1Cc1ccc(F)cc1 (stereo not shown) [SL-D.163 (cl)], the LD50 at 48 h (in vivo; [6]) was 400 mg/kg and the ED50 [1, 7] was 3 mg/kg.
Work on COc1ccc(Cl)cc1C(=O)NCC1CCCN1Cc1ccc(F)cc1 (stereo not shown) [SL-D.165 (cl), N-[(1-p-fluorobenzyl-pyrrolidinyl-2)-methyl]-2-methoxy-5-chloro-benzamide] yielded an LD50 at 48 h (in vivo; [6]) of 275 mg/kg, an ED40 [4] of 30 mg/kg and an ED50 [1, 7] of 1.5 mg/kg.
With COc1ccc(S(N)(=O)=O)cc1C(=O)NCC1CCCN1Cc1ccccc1F (stereo not shown) [SL-D.192 (cl)] the LD50 at 48 h (in vivo; [6]) was > 2000 mg/kg and the ED40 [4] was 30 mg/kg.
For COc1ccc(S(N)(=O)=O)cc1C(=O)NCC1CCCN1Cc1cccc(F)c1 (stereo not shown) [SL-D.193 (cl), N-[(1-m-fluorobenzyl-pyrrolidinyl-2)-methyl]-2-methoxy-5-sulphamoyl-benzamide], the LD50 at 48 h (in vivo; [6]) was > 2000 mg/kg, the ED40 [4] was 30 mg/kg and the ED50 [1, 7] was 150 mg/kg.
In the case of COc1ccc(S(N)(=O)=O)cc1C(=O)NCC1CCCN1CC=Cc1ccc(F)cc1 (stereo not shown) [SL-D.194 (cl)], the LD50 at 48 h (in vivo; [6]) is reported as > 2000 mg/kg.
In the case of COc1ccc(S(N)(=O)=O)cc1C(=O)NCC1CCCN1CCC#N (stereo not shown) [Sl-C.262 (cl), N-[1-(2-cyanoethyl)-pyrrolidinyl-2-methyl]-2-methoxy-5-sulphamoyl-benzamide], the LD50 at 48 h (in vivo; [6]) is reported as > 2000 mg/kg.
With CCN1CCCC1CNC(=O)c1cc(S(N)(=O)=O)ccc1OC (stereo not shown) [Sulpiride (cl), N-[(1-ethylpyrrolidinyl-2)-methyl]-2-methoxy-5-sulphamoyl-benzamide hydrochloride, reference compound] the TD50 [3] was > 100 mg/kg, the ED50 [1, 7] was 60 mg/kg and the ED50 [1, 8] was > 600 mg/kg. For the same molecule, the “antagonism to stereotypies induced in rats by apomorphine” value [1] was “inactive”.
